Assays:
[1] = Solubility of diosgenin in oil phase; type: physicochemical; conditions: dissolved in combination with bottle gourd seed
albino Wistar rats = assay: Streptozotocin induction of hyperglycemic/diabetic state in albino Wistar rats; type: in vivo
Description: Table 1 presents the results of how the metabolism of normal albino rats progresses into a hyperglycemic/diabetic state as a multiple low-dosage of streptozotocin is administered for diabetes induction.

Row | Structure (SMILES) | solubility of diosgenin [1] | Glucose Concentration (albino Wistar rats; First Cycle, Day 15) [mg/dL] | Glycated Hemoglobin GHb (albino Wistar rats; First Cycle, Day 15) | Glycated Hemoglobin HbA1c (albino Wistar rats; First Cycle, Day 15) [%] | Glycated Hemoglobin MBG (albino Wistar rats; First Cycle, Day 15) | Glucose Concentration (albino Wistar rats; First Cycle, Dose 1 of multiple low-dosage streptozotocin) [mg/dL] | Glucose Concentration (albino Wistar rats; First Cycle, Dose 2) [mg/dL] | Glucose Concentration (albino Wistar rats; First Cycle, Dose 3) [mg/dL] | Glucose Concentration (albino Wistar rats; Second cycle, Dose 4) [mg/dL] | Glucose Concentration (albino Wistar rats; Second cycle, Dose 5) [mg/dL] | Glucose Concentration (albino Wistar rats; Second cycle, Dose 6) [mg/dL] | Glycated Hemoglobin GHb (albino Wistar rats; Second cycle, Dose 6) | Glycated Hemoglobin HbA1c (albino Wistar rats; Second cycle, Dose 6) [%] | Glycated Hemoglobin MBG (albino Wistar rats; Second cycle, Dose 6)
1 | C[C@@H]1CC[C@@]2(OC1)O[C@H]1C[C@H]3[C@@H]4CC=C5C[C@@H](O)CC[C@]5(C)[C@H]4CC[C@]3(C)[C@H]1[C@@H]2C [diosgenin] | enhanced |  |  |  |  |  |  |  |  |  |  |  |  | 
2 | CN(N=O)C(=O)N[C@H]1C(O)O[C@H](CO)[C@@H](O)[C@@H]1O (mixture of isomers) [Streptozotocin, streptozotocin] |  | 532.17 ± 22.15 | 12.37 ± 0.81 | 9.50 ± 0.54 | 225.39 ± 15.55 | 171.56 ± 22.70 | 318.31 ± 19.86 | 439.31 ± 41.00 | 425.60 ± 31.10 | 459.87 ± 33.56 | 451.89 ± 44.27 | 12.40 ± 0.28 | 9.50 ± 0.19 | 226.03 ± 5.53

— patent US20240408010A1, “A Nano Emulsified Phyto-Drug For Transdermal Treatment of Diabetes” (University of South Africa, priority 2021, published 2024)
